This experiment has as its target T1, human factor Xa (Homo sapiens, UniProt P00742).
T1 construct: human factor Xa; purchased Enzyme Research Laboratories, Inc; South Bend, Ind
In words: Factor Xa assay (chromogenic, purified enzyme). Type of experiment: biochemical. Particulars: inhibition constant for factor Xa; chromogenic substrate S-2765 140 μM, enzyme 0.5 nM, 25° C.; Ki=IC50/{1+(substrate concentration/Km)}; read-out: Ki (FXa). Here is the method: Purified enzymes were used in chromogenic assays.
The assay was performed by pre-incubating the compound of formula I or Ia plus enzyme for 10 min. Then the assay was initiated by adding substrate to obtain a final volume of 100 μl. The initial velocity of chromogenic substrate hydrolysis was measured by the change in absorbance at 405 nm using a Bio-tek Instruments kinetic plate reader (Ceres UV900HDi) at 25° C. during the linear portion of the time course (usually 1.5 min after addition of substrate).

T1 sequence (P00742 235-488 limits assumed): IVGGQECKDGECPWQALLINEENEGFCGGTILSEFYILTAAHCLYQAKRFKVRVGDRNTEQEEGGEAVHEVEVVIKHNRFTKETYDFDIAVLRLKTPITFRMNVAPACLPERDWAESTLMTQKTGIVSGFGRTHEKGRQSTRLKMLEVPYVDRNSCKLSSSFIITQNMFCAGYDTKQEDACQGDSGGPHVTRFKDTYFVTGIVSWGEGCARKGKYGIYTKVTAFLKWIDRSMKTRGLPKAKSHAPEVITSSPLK
T1 sequence (P00742 41-179 partner limits assumed): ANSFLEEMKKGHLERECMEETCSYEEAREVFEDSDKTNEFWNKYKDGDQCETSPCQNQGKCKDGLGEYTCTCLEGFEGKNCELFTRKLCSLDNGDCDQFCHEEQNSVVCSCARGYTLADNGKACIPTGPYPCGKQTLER

As to `CC(C)N1CCC(NS(=O)(=O)C(C)CNC(=O)c2ccc(Cl)s2)CC1` (racemic) [Example 26, 5-Chloro-thiophene-2-carboxylic acid [2-(1-isopropyl-piperidin-4-ylsulfamoyl)-propyl]-amide], the inhibition constant Ki is 13 nM.

In the case of `CC(C)N1CCC(N2C(=O)CC(CNC(=O)c3ccc(Cl)s3)S2(=O)=O)CC1` (racemic) [Example 31, 5-Chloro-thiophene-2-carboxylic acid [2-(1-isopropyl-piperidin-4-yl)-1,1,3-trioxo-1λ^6-isothiazolidin-5-ylmethyl]-amide], the Ki came to 32 nM. The same measure for `CC(C)N1CCC(NS(=O)(=O)CCNC(=O)c2ccc(Cl)s2)CC1` [Example 1, 5-Chloro-thiophene-2-carboxylic acid [2-(1-isopropyl-piperidin-4-ylsulfamoyl)-ethyl]-amide]: 10 nM. The value for `O=C(NCCS(=O)(=O)NC1CCN(C2CC2)CC1)c1ccc(Cl)s1` [Example 2, 5-Chloro-thiophene-2-carboxylic acid [2-(1-cyclopropyl-piperidin-4-ylsulfamoyl)-ethyl]-amide] was 167 nM; that for `CC(C)N1CCC(N(C)S(=O)(=O)CCNC(=O)c2ccc(Cl)s2)CC1` [Example 3, 5-Chloro-thiophene-2-carboxylic acid {2-[(1-isopropyl-piperidin-4-yl)-methyl-sulfamoyl]-ethyl}-amide] was 7 nM. For the molecule `CC(C)N1CCC(N(CC(F)(F)F)S(=O)(=O)CCNC(=O)c2ccc(Cl)s2)CC1` [Example 4, 5-Chloro-thiophene-2-carboxylic acid {2-[(1-isopropyl-piperidin-4-yl)-(2,2,2-trifluoro-ethyl)-sulfamoyl]-ethyl}-amide], the Ki was 15 nM.

Take `O=C(NCCS(=O)(=O)NC1CCN(c2ccncc2)CC1)c1ccc(Cl)s1` [Example 5, 5-Chloro-thiophene-2-carboxylic acid [2-(3,4,5,6-tetrahydro-2H-[1,4′]bipyridinyl-4-ylsulfamoyl)-ethyl]-amide]: the Ki stood at 66 nM. On to `O=C(NCCS(=O)(=O)NC1CNC1)c1ccc(Cl)s1` [Example 6, 5-Chloro-thiophene-2-carboxylic acid[2-(azetidin-3-ylsulfamoyl)-ethyl]-amide], for which the Ki amounted to 20500 nM. Turning to `CC(C)N1CC(NS(=O)(=O)CCNC(=O)c2ccc(Cl)s2)C1` [Example 7, 5-Chloro-thiophene-2-carboxylic acid [2-(1-isopropyl-azetidin-3-ylsulfamoyl)-ethyl]-amide], the inhibition constant (Ki) stood at 7250 nM.

For the molecule `O=C(NCCS(=O)(=O)NN1CCN(Cc2ccccc2)CC1)c1ccc(Cl)s1` [Example 8, 5-Chloro-thiophene-2-carboxylic acid [2-(4-benzyl-piperazin-1-ylsulfamoyl)-ethyl]-amide], the Ki came to 1100 nM.

As to `CC(C)N1CCC(NS(=O)(=O)CCNC(=O)c2ccc(Br)s2)CC1` [Example 9, 5-Bromo-thiophene-2-carboxylic acid[2-(1-isopropyl-piperidin-4-ylsulfamoyl)-ethyl]-amide], the Ki turned out to be 6 nM.

As for `Cc1ccc(C(=O)NCCS(=O)(=O)NC2CCN(C(C)C)CC2)s1` [Example 10, 5-Methyl-thiophene-2-carboxylic acid [2-(1-isopropyl-piperidin-4-ylsulfamoyl)-ethyl]-amide], the Ki amounted to 259 nM.

Turning to `CC(C)N1CCC(NS(=O)(=O)CCNC(=O)c2ccc(Br)o2)CC1` [Example 11, 5-Bromo-furan-2-carboxylic acid [2-(1-isopropyl-piperidin-4-ylsulfamoyl)-ethyl]-amide], the Ki is 3150 nM. As for `CC(C)N1CCC(NS(=O)(=O)CCNC(=O)c2ccc(Cl)cc2)CC1` [Example 12, 4-Chloro-N-[2-(1-isopropyl-piperidin-4-ylsulfamoyl)-ethyl]-benzamide], the inhibition constant Ki was determined as 572 nM.

With `CC(C)N1CCC(NS(=O)(=O)CCNC(=O)c2ccc(Cl)cn2)CC1` [Example 13, 5-Chloro-pyridine-2-carboxylic acid [2-(1-isopropyl-piperidin-4-ylsulfamoyl)-ethyl]-amide], the Ki was 4470 nM. The value for `CC(C)N1CCC(NS(=O)(=O)CCNC(=O)c2cccc(Cl)c2)CC1` [Example 14, 3-Chloro-N-[2-(1-isopropyl-piperidin-4-ylsulfamoyl)-ethyl]-benzamide] was 19600 nM. With `COCCN(C1CCN(C(C)C)CC1)S(=O)(=O)CCNC(=O)c1ccc(Cl)s1` [Example 15, 5-Chloro-thiophene-2-carboxylic acid {2-[(1-isopropyl-piperidin-4-yl)-(2-methoxy-ethyl)-sulfamoyl]-ethyl}-amide], the Ki was determined as 5 nM. The value for `CC(C)N1CCC(N(CCO)S(=O)(=O)CCNC(=O)c2ccc(Cl)s2)CC1` [Example 16, 5-Chloro-thiophene-2-carboxylic acid {2-[(2-hydroxy-ethyl)-(1-isopropyl-piperidin-4-yl)-sulfamoyl]-ethyl}-amide] was 4 nM; that for `CC(C)N1CCC(N(CCCO)S(=O)(=O)CCNC(=O)c2ccc(Cl)s2)CC1` [Example 17, 5-Chloro-thiophene-2-carboxylic acid {2-[(3-hydroxy-propyl)-(1-isopropyl-piperidin-4-yl)-sulfamoyl]-ethyl}-amide] was 4 nM. The same measure for `CC(C)N1CCC(N(CC(=O)N(C)C)S(=O)(=O)CCNC(=O)c2ccc(Cl)s2)CC1` [Example 18, 5-Chloro-thiophene-2-carboxylic acid {2-[dimethylcarbamoylmethyl-(1-isopropyl-piperidin-4-yl)-sulfamoyl]-ethyl}-amide]: 5 nM; for `CC(C)N1CCC(N(CC(=O)N2CCOCC2)S(=O)(=O)CCNC(=O)c2ccc(Cl)s2)CC1` [Example 19, 5-Chloro-thiophene-2-carboxylic acid {2-[(1-isopropyl-piperidin-4-yl)-(2-morpholin-4-yl-2-oxo-ethyl)-sulfamoyl]-ethyl}-amide]: 5 nM. The same measure for `CC(C)N1CCC(N(CC(N)=O)S(=O)(=O)CCNC(=O)c2ccc(Cl)s2)CC1` [Example 20, 5-Chloro-thiophene-2-carboxylic acid {2-[carbamoylmethyl-(1-isopropyl-piperidin-4-yl)-sulfamoyl]-ethyl}-amide]: 3 nM.

Turning to `Cc1cc(CN(C2CCN(C(C)C)CC2)S(=O)(=O)CCNC(=O)c2ccc(Cl)s2)no1` [Example 21, 5-Chloro-thiophene-2-carboxylic acid {2-[(1-isopropyl-piperidin-4-yl)-(5-methyl-isoxazol-3-ylmethyl)-sulfamoyl]-ethyl}-amide], the Ki stood at 4 nM. The same measure for `CC(C)N1CCC(N(Cc2cccnc2)S(=O)(=O)CCNC(=O)c2ccc(Cl)s2)CC1` [Example 22, 5-Chloro-thiophene-2-carboxylic acid {2-[(1-isopropyl-piperidin-4-yl)-pyridin-3-ylmethyl-sulfamoyl]-ethyl}-amide]: 8 nM. For the molecule `CC(C)N1CCC(N(Cc2nccs2)S(=O)(=O)CCNC(=O)c2ccc(Cl)s2)CC1` [Example 23, 5-Chloro-thiophene-2-carboxylic acid {2-[(1-isopropyl-piperidin-4-yl)-thiazol-2-ylmethyl-sulfamoyl]-ethyl}-amide], the inhibition constant (Ki) amounted to 6 nM. The value for `CCCNC(=O)N(C1CCN(C(C)C)CC1)S(=O)(=O)CCNC(=O)c1ccc(Cl)s1` [Example 24, 5-Chloro-thiophene-2-carboxylic acid {2-[(1-isopropyl-piperidin-4-yl)-propylaminocarbonyl-sulfamoyl]-ethyl}-amide] was 4 nM. Regarding `CC(=O)N(C1CCN(C(C)C)CC1)S(=O)(=O)CCNC(=O)c1ccc(Cl)s1` [Example 25, 5-Chloro-thiophene-2-carboxylic acid {2-[acetyl-(1-isopropyl-piperidin-4-yl)-sulfamoyl]-ethyl}-amide], the inhibition constant (Ki) is 3 nM. The value for `CC(C)N1CCC(NS(=O)(=O)C[C@H](CO)NC(=O)c2ccc(Cl)s2)CC1` [Example 27, 5-Chloro-thiophene-2-carboxylic acid [(S)-1-hydroxymethyl-2-(1-isopropyl-piperidin-4-ylsulfamoyl)-ethyl]-amide] was 1250 nM; that for `CC(C)N1CCC(NS(=O)(=O)CC(C)(C)NC(=O)c2ccc(Cl)s2)CC1` [Example 28, 5-Chloro-thiophene-2-carboxylic acid [2-(1-isopropyl-piperidin-4-ylsulfamoyl)-1,1-dimethyl-ethyl]-amide] was 3390 nM; that for `CC(C)N1CCC(NS(=O)(=O)CCCNC(=O)c2ccc(Cl)s2)CC1` [Example 29, 5-Chloro-thiophene-2-carboxylic acid [3-(1-isopropyl-piperidin-4-ylsulfamoyl)-propyl]-amide] was 399 nM. For `CC(C)N1CCC(N(Cc2cc(-c3ccc(Cl)s3)on2)S(=O)(=O)CCNC(=O)c2ccc(Cl)s2)CC1` [Example 32, 5-Chloro-thiophene-2-carboxylic acid {2-[[5-(5-chloro-thiophen-2-yl)-isoxazol-3-ylmethyl]-(1-isopropyl-piperidin-4-yl)-sulfamoyl]-ethyl}-amide], the Ki stood at 6 nM. On to `CC(C)N1CCC(N(Cc2nnc(C3CC3)s2)S(=O)(=O)CCNC(=O)c2ccc(Cl)s2)CC1` [Example 33, 5-Chloro-thiophene-2-carboxylic acid {2-[(5-cyclopropyl-[1,3,4]thiadiazol-2-ylmethyl)-(1-isopropyl-piperidin-4-yl)-sulfamoyl]-ethyl}-amide], for which the Ki came out at 6 nM.

Values taken from patent US8088925B2, “Heteroaryl-carboxylic acid (sulfamoyl alkyl) amide-derivatives as factor Xa inhibitors” (priority 2005, dated 2012).
